This note sets out measurements from patent US20060045864A1, “Preventing marine biofouling by inhibiting adhesive release from barnacles” (priority 2004, published 2006).

The subject of one test is barnacle cypris larvae. As to the kind of experiment: settling and metamorphosis of barnacle cypris larvae in Petri dish with filtered seawater. It is filed as in vivo, Balanus improvisus. As to conditions: 20 cypris larvae in 5 ml filtered seawater; for inhibition of settling rate of barnacle cypris larvae, compared between substances and control: 1 μM and 10 μM, accumulative settling frequency over 10 days (FIG. 1). The procedure:
(§1) All the below described experiments are on the species Balanus improvisus.
In a Petri dish containing 5 ml of filtered seawater, 20 cypris larvae and a defined concentration of the different pharmacological agents. […] 20 barnacle cypris larvae were added into a Petri dish containing 5 ml filtered seawater and different concentration of haloperidole and SCH 23990. […] Instead 1 μM of SCH 23390 inhibits the settling rate almost completely. Typically, 0.01-1.0% of the dopamine antagonist effects the desired result, typically dissolved in ethanol and mixed with commercially available paints, such as VC 17 New Technology (solid paint) International Coatings (Akzo Nobel bv, Arnhem, NL), SPF (Self polishing, SPC) (Loutrec AB, Lidingo, Sweden), TF (combined solid/ablative) (Loutrec AB), Fabi Eco (ablative paint) International Coatings (Akzo Nobel bv).

For test [1], the system named is release of barnacle adhesive. The test is described as follows: release of barnacle adhesive. The arrangement: species or system Balanus improvisus. As to conditions: in vivo.
Description: as §1
The release of the adhesive is governed by a G-protein coupled receptor and it is possible to stimulate release of the adhesive glands by adding dopamine. According to the same principle, it is possible to block the release of the adhesive proteins by using a dopamine antagonist that block the action of dopamine. […] The invention herein includes use of SCH23390, and salts and derivatives thereof, as well as other D1 or D5 receptor antagonists such as […], SCH 39166, SCH 233388 and the like or antagonists against other receptors with the same function.

For `CN1CCc2cc(Cl)c(O)cc2[C@@H](c2ccccc2)C1` [SCH 23390, (R)-(+)-7-Chloro-8-hydroxy-3-methyl-1-phenyl-2,3,4,5-tetrahydro-1H-3-benzazepine], the “inhibition of settling rate of barnacle cypris larvae, compared between substances and control” value in the test with barnacle cypris larvae is on record as “effectively inhibits the settling rate”. The “effect on settlement rate of barnacle cypris larvae” value with barnacle cypris larvae (1 μM, accumulative settling over 10 days (FIG. 1)) is on record as “almost complete reducing effect”. Moreover, the “inhibition of the release of barnacle adhesive” value in test [1] was “can inhibit the release of barnacle adhesive”.

`O=C(CCCN1CCC(O)(c2ccc(Cl)cc2)CC1)c1ccc(F)cc1` [haloperidol]: the “inhibition of settling rate of barnacle cypris larvae, compared between substances and control” value in the test on barnacle cypris larvae is “less effective”.
